From EP4790046A1, “NOVEL COMPOUND DERIVED FROM MYRISTICA FRAGRANS, AND ANTICANCER COMPOSITION COMPRISING SAME” (Korea Institute of Science and Technology, priority 2023, dated 2025)

Legend:
[1] = system: SNU-719; experiment: alamarBlue cell viability (survival rate, IC50), SNU-719; format: cell-based
Source text: A p-value < 0.05 was considered statistically significant.

[2] = system: 23132/87 cells; experiment: Apoptosis, Annexin V-FITC/PI staining, flow cytometry, 23132/87; format: cell-based; conditions: for Apoptosis distribution (%), Q2: Annexin V-FITC+/PI+ (late apoptosis and cell death); for Apoptosis distribution (%), Q3: Annexin V-FITC+/PI- (early apoptosis); for Apoptosis distribution (%), Q4: Annexin V-FITC-/PI- (healthy population)
Method: 23132/87 and SW48 cells were seeded at densities of 5 × 10^5 and 7 × 10^5 cells/well in a 6-well plate and cultured for 24 hours. […] After treatment, cells were harvested and stained using the Annexin V-FITC Early Apoptosis Detection Kit (6592, Cell Signaling Technology, USA). Flow cytometry (BD FACSVerse Cell Analyzer and FlowJo software, BD Biosciences, USA) was applied to analyze the samples based on 10,000 events.
Student's t-test was performed for statistical analysis between the 2 concentrations of the same compound.

[3] = mouse, in vivo, ip, 10 mg/kg
Method: Female BALB/c/nu/nu mice (5 weeks old) were used in the in vivo model.
As shown in the schematic diagram of Figure 16a, 23132/87 and SW48 cells were injected subcutaneously into mice at densities of 5 × 10^6 cells/mouse and 3 × 10^6 cells/mouse, respectively. […] Tumor volume and body weight were measured twice weekly. On day 27, mice were sacrificed, and major organs (liver, spleen, kidney) and tumor tissue were collected and stored for further analysis. Tumor volume was calculated using the following formula: Volume (mm^3) = (Length) × (Width)^2 × 1/2.

C=CCc1cc(OC)c(O[C@H](C)[C@H](c2ccc(O)c(OC)c2)c2ccc(O)c(C(=O)CCCCCCCCc3ccc(O)cc3)c2O)c(OC)c1 [Compound 3, Myricone C]
IC50 ([1]; SNU719 (gastric cancer), 2.5-40 µM, positive control = doxorubicin): 2930 nM | Cancer cell line survival rate (%) ([1]; SNU-719 (gastric cancer), compound 10 µM, 48 hours): 4.30% | Apoptosis distribution (%), Q2 ([2]; 23132/87, 5 µM, 20 hours): 9.35% | Apoptosis distribution (%), Q3 ([2]; 23132/87, 5 µM, 20 hours): 5.76% | Apoptosis distribution (%), Q4 ([2]; 23132/87, 5 µM, 20 hours): 81.57% | Apoptosis distribution (%), Q2 ([2]; 23132/87, 10 µM, 20 hours): 10.47% | Apoptosis distribution (%), Q3 ([2]; 23132/87, 10 µM, 20 hours): 10.97% | Apoptosis distribution (%), Q4 ([2]; 23132/87, 10 µM, 20 hours): 75.00% | Q3 population ([2]; 23132/87, 5 µM): 5.76% ± 0.35% | Apoptosis distribution (%), Q1 ([2]; 23132/87, 5 µM, 20 hours): 3.30% | Q3 ratio compared with DMSO control ([2]; 23132/87, 5 µM, 20 hours): significantly increased | Q3 population ([2]; 23132/87, 10 µM): 10.97% ± 0.12% | Q4 distribution reduction compared to the control group ([2]; 23132/87, 10 µM): 8.27% | Apoptosis distribution (%), Q1 ([2]; 23132/87, 10 µM, 20 hours): 3.59% | Q2 ratio increase compared with DMSO control ([2]; 23132/87, 10 µM, 20 hours): about 2% | Q3 ratio increase compared with DMSO control ([2]; 23132/87, 10 µM, 20 hours): ~6% | Q2 and Q3 with increasing concentrations ([2]; 23132/87, 5 to 10 µM): significantly increased | body weight and the weights of major organs (liver, spleen, kidneys) [3]: remained stable
